Key:
[1] = target: T1, Menin/Histone-lysine N-methyltransferase MLL (Homo sapiens, UniProt O00255); test: Inhibition of menin-MLL1 (unknown origin) protein-protein interaction by HTRF assay
[2] = target: T1, Menin/Histone-lysine N-methyltransferase MLL; test: Inhibition of menin-MLL1 (unknown origin) protein-protein interaction by fluorescence polarization assay
MV4-11 = test: Antiproliferative activity against human MV411 cell spheroids; format: functional, cell-based
MOLM-14 = test: Antiproliferative activity against human MOLM14 cell spheroids; format: functional, cell-based

T1 sequence (O00255 whole entry): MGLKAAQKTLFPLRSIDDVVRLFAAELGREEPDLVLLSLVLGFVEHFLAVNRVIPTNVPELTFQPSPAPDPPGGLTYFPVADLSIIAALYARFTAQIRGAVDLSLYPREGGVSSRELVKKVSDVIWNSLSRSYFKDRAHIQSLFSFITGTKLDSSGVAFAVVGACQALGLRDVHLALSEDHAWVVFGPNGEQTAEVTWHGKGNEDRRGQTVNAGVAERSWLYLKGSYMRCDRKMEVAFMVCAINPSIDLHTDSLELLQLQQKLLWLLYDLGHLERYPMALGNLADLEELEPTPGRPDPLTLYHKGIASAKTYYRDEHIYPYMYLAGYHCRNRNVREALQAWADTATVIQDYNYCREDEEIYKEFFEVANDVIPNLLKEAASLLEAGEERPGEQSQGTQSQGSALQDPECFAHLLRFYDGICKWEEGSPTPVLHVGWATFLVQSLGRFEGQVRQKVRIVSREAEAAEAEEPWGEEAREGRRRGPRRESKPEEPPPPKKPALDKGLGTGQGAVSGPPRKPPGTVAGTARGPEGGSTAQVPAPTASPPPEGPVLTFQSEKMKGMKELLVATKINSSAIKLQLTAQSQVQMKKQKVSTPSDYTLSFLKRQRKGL
T1 sequence (Q03164 1-2718 partner limits assumed): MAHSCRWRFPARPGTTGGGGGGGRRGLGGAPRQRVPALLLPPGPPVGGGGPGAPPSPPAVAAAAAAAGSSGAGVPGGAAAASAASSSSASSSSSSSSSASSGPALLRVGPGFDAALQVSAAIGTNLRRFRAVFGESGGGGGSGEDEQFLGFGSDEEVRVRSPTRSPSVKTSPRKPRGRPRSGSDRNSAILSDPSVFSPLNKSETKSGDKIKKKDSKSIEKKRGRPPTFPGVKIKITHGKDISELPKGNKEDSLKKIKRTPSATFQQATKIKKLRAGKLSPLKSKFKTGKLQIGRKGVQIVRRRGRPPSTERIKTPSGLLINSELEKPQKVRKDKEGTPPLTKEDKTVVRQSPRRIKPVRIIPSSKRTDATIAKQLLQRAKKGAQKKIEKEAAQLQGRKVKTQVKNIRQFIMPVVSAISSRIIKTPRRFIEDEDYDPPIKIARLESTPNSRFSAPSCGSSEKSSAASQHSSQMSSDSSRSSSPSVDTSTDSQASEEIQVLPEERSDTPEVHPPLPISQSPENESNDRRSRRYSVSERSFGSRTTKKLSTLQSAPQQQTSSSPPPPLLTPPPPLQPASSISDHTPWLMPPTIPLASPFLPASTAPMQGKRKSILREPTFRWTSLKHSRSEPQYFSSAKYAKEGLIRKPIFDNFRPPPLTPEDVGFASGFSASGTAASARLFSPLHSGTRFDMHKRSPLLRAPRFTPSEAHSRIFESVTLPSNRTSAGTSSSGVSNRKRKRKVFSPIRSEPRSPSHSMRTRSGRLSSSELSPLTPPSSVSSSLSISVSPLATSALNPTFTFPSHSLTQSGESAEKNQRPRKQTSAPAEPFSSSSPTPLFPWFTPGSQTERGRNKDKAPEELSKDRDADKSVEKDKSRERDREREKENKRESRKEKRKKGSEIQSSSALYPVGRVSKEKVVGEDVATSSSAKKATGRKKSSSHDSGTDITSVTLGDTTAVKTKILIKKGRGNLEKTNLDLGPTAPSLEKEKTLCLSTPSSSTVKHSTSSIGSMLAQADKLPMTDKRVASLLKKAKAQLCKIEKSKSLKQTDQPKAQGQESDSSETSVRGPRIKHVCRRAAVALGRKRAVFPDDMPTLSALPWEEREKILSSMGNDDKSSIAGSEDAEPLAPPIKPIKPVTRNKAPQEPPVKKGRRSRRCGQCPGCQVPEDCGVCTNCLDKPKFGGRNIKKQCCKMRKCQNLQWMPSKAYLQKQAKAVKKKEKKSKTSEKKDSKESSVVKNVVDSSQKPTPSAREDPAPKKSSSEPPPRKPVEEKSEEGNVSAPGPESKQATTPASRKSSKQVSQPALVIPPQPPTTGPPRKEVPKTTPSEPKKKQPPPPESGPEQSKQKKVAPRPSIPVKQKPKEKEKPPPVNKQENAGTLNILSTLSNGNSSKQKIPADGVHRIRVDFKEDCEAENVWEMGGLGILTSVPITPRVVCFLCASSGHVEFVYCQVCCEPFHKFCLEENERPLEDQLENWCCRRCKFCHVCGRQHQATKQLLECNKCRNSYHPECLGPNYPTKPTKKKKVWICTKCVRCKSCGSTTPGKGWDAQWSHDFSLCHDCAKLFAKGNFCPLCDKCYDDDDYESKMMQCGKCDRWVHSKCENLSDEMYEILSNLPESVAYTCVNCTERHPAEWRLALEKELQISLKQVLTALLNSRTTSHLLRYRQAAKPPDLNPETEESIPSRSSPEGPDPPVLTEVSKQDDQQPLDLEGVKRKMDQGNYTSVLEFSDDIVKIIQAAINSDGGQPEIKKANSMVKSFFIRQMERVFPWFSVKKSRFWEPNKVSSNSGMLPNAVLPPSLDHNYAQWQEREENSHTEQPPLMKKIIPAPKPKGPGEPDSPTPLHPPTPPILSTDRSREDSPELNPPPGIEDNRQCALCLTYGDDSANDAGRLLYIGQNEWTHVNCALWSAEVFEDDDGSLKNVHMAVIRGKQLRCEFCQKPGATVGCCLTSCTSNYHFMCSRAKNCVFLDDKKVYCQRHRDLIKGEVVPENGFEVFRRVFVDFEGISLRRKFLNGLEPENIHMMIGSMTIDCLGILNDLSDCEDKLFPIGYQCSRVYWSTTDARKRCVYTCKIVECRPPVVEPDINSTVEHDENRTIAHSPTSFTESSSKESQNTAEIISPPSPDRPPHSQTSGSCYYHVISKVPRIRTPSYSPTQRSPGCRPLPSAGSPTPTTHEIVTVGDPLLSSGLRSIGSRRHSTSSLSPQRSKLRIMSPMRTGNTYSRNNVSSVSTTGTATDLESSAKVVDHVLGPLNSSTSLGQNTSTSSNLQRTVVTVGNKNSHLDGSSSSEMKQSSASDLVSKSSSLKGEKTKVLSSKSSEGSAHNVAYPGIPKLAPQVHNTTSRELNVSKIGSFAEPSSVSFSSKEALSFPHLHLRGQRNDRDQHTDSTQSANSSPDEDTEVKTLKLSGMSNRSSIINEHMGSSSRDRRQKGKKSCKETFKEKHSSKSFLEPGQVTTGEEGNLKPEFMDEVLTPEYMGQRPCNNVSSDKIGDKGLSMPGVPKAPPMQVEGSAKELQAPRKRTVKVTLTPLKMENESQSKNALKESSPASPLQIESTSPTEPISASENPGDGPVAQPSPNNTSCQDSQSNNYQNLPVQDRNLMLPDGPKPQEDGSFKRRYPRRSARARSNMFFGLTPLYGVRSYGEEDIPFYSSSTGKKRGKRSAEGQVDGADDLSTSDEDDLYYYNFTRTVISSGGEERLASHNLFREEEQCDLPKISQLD
T1 sequence (Q03164 2719-3969 partner limits assumed): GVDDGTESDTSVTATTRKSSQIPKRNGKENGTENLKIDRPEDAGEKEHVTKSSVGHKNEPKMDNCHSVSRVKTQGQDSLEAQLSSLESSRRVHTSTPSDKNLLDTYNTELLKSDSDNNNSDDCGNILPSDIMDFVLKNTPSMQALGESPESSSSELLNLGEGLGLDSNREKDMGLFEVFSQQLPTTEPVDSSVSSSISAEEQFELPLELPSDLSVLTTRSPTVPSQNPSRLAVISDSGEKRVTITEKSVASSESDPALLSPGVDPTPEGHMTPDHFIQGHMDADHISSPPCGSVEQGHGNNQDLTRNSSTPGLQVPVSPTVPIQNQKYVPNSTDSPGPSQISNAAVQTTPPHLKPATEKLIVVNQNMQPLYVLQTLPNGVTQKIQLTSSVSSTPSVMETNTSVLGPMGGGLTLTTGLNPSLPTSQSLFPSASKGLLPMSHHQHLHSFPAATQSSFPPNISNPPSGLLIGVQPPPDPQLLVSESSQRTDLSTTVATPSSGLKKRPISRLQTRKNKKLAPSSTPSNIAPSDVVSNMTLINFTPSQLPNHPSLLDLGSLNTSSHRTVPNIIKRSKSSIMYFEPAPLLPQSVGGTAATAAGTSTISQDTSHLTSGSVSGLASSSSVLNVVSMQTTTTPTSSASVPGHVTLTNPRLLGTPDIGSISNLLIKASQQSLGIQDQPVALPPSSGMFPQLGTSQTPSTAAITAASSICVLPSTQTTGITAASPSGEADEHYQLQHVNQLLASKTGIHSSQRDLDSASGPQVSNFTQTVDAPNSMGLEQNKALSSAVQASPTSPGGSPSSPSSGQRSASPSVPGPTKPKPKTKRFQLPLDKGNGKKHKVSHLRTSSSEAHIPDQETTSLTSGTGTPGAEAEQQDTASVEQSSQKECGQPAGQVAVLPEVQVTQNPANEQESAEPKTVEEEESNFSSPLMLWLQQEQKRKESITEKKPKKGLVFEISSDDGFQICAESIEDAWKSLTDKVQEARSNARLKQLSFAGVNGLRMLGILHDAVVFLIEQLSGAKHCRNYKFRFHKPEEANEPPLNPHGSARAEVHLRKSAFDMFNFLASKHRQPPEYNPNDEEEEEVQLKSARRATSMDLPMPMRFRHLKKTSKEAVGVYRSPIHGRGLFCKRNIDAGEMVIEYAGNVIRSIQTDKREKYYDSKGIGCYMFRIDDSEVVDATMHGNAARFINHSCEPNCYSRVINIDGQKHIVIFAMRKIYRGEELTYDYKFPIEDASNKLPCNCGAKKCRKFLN

Row | SMILES | IC50 [1] | IC50 [2] | IC50 (MV4-11) | IC50 (MOLM-14)
1 | FC(F)(F)Cc1cc2c(N3CCC4(CN(Cc5ccccc5)C4)C3)ncnc2s1 | 144 nM | 56 nM | 3700 nM | 4600 nM
2 | CC(C)[C@H](C1CNC1)N1CC2(CCN(c3ncnc4sc(CC(F)(F)F)cc34)C2)C1 | 8 nM | 21 nM | 80 nM | 860 nM
3 | CC(C)[C@@H](C1CNC1)N1CC2(CCN(c3ncnc4sc(CC(F)(F)F)cc34)C2)C1 | 190 nM | 110 nM | 3400 nM | 10300 nM

Results, then the compound that gave them:

Row | IC50 [1] | IC50 [2] | IC50 (MV4-11) | IC50 (MOLM-14) | SMILES
4 | 227 nM | 140 nM | 3900 nM | 7700 nM | FC(F)(F)Cc1cc2c(N3CCCC4(CCN(Cc5ccccc5)C4)C3)ncnc2s1 (centres undefined)
5 | 102 nM | 92 nM | 2600 nM | 11300 nM | O=C([C@@H]1CC2(CC2)CN1)N1CC2(CCN(c3ncnc4sc(CC(F)(F)F)cc34)C2)C1
6 | 385 nM | 120 nM | 2100 nM | > 15000 nM | Cn1cc2c(n1)CCCC2N1CC2(CCN(c3ncnc4sc(CC(F)(F)F)cc34)C2)C1 (centres undefined)
